We go through two compounds from patent publication US20240285808A1, “MOLECULAR PROBES FOR IN VIVO DETECTION OF ALDEHYDES” (The General Hospital Corporation, priority 2021, published 2024).

“And” between values parts separate entries of the source, which are not always exact repeats. Equal values may be shown once. “Also recorded” adds a separate entry of the source.

Series [1] deals with fibrotic lung tissue of bleomycin-injured mice. The experiment in a line: Biodistribution study for selectivity of allysine-reactive Gd probes (Gd:Eu ratio by ICP-MS). The class given is in vivo, mouse. Conditions: 30 minutes after injection, 100 nmol/g, Eu-DOTA co-injected, n = 5. Here is the method: C57Bl/6 adult male mice at 8 weeks of age (Jackson Laboratories, Barr Harbor, ME) received a single intratracheal dose of bleomycin, 1 units/kg body weight (50 μL total volume) (Fresenius Kabi, Lake Zurich, Il) as previously described in Desogere, P., et al. Optimization of a Collagen-Targeted PET Probe for Molecular Imaging of Pulmonary Fibrosis. J Nuc Med 58, 1991-1996 (2017).
Imaging and Biodistribution Study for Selectivity of Allysine-Reactive Probes In Vivo:
Bleomycin-injured mice at 14 days after injury were sedated and then injected with Compound 19, Compound 20, Gd-CHyd (Akam, E. A., et al. Improving the reactivity of hydrazine-bearing MRI probes for in vivo imaging of lung fibrogenesis. Chemical Science 11, 224-231 (2020)) formulated to contain an equal concentration of Eu-DOTA as a non-binding control probe. […] Each sample was analyzed by ICP-MS for gadolinium and europium content, and the lungs were also assessed for hydroxyproline content. […] All animals were dosed via tail vein injection at 100 nmol/g body weight from 30 mM solutions of gadolinium probes with 30 mM Eu-DOTA as determined by ICP-MS. […] Animals were euthanized 90 min post injection and their organs and tissues were harvested and counted using a gamma counter. […] The animals were euthanized 90 min post injection and their organs and tissues were counted using a gamma counter. […]

Series [2] in a line: Reaction rates with 2-formylpyridine measured by HPLC-ICP-MS (Method A). The class given is physicochemical. Conditions: Method a: 2-formylpyridine 1000 μM, probe 25 μM, pH 7.40 PBS. Here is the method: Quantitative Measurement of Reaction Rates with Aldehydes: Method A: Reaction Rates of Compounds with 2-Formylpyridine Measured by HPLC-ICP-MS
Reactivity of aldehyde-binding probes were assessed in pH 7.40 phosphate-buffered saline under pseudo-first order conditions with 2-formylpyridine concentration of 1000 μM and probes at 25 μM. Concentrations of unreacted starting material and condensation products were determined at 12 min time intervals based on their relative integrations. The values were fit to a standard first order rate constant linear equation and the rate constant was extracted from the slope.

Series [3] is described as follows: Relaxivity measurements in PBS. The class given is physicochemical. Conditions: 1.4 T, 37° C. Here is the method: (§1) BSA-ALD (10 mg/mL) or BSA (10 mg/mL) were treated for 24 hours at 37° C. with the corresponding Gd or Mn complex at a range of concentrations (0.01-0.2 mM), with a total volume of 300 μL maintained for all samples. After 24 hours, an aliquot of the solution (50 μL) was used for longitudinal (T1) relaxation measurements, recorded using a Bruker mq60 Minispec at 1.41 T and 37° C. Longitudinal (T1) relaxation times were measured via an inversion recovery experiment using 10 inversions of duration ranging between 0.05×T1 and 10×T1. Solutions (concentration range: 0.1 mM-1.0 mM) in PBS were run in parallel. To measure the relaxivity of BSA-bound species, sodium cyanoborohydride (10 mg) was added to the solution to irreversibly bind the probe to the protein. After a further 2h incubation at 37° C., protein-bound and protein-free solutions were separated by ultrafiltration. Then 200 μL PBS was added to the residue to dissolve the protein. Longitudinal (T1) relaxation times for the bounded species were measured using a Bruker mq60 Minispec at 1.41 T and 37° C. After the measurement, concentration of corresponding metal ion (Gd/Mn) in the residue and filter were both determined using an Agilent 8800 ICP-MS system. Relaxivity (r1) was determined from the slope of a plot of 1/T1 vs metal concentration for 5 concentrations.

The test system of series [4] is liver of CCl4 injured mice. The class given is in vivo, mouse. Conditions: CCl4 injured mice. Here is the method:
CCl4 Liver Fibrosis Model:
Male C57BL/6 mice (Charles River Laboratories, Wilmington, MA) were treated with carbon tetrachloride for 12 weeks (0.1 ml of 20% CCl4 in olive oil the first week, 30% the second week, and 40% from weeks 3-12) by oral gavage, 2-3 times per week. Control mice were fed vehicle (olive oil) only.
A total of 53 C57BL/6 mice were included to study CCl4 induced hepatic fibrosis: • A. CCl4 for 12 weeks (n=20). Each mouse was imaged with probe 1 and then imaged again 24 hours later with probe 2. Probe 1 and Probe 2 were randomly chosen from GdDOTA, GdCHyd, Mn-12, Gd-9 and Gd-10. • B. Vehicle treated control (n=20). Each mouse was imaged with probe 1 and then imaged again 24 hours later with probe 2. Probe 1 and Probe 2 were randomly chosen from GdDOTA, Mn-12, GdCHyd, Gd-9, Gd-10. • C. CCl4 for 12 weeks (n=3, another 3 pair-wise comparison have been done in group A). Each mouse was imaged with probe 1 and then imaged again 24 hours later with probe 2. […] Each mouse was imaged with probe 1 and then imaged again 24 hours later with probe 2. Probe 1 and Probe 2 were randomly choosing from Gd-9 and Gd-10. • E. CCl4 for 12 weeks (n=3). Each mouse was imaged with Gd-9. After 24 hours, the same mouse was first injected with 1000 μmol/kg of Yb-9 and then injected with 100 μmol/kg of Gd-9 15 min after the Yb-9 injection.
Animals were anesthetized with isoflurane (1-2%) and placed in a specially designed cradle with body temperature maintained at 37° C. The inhaled isoflurane level was adjusted to maintain a respiration rate of 60±5 breaths per minute. The tail vein was cannulated for intravenous (i.v.) delivery of the contrast agent while the animal was positioned in the scanner. Imaging was performed at 4.7 T using a small bore animal scanner with a custom-built volume coil. Mice were imaged with a dose of 100 μmol/kg from 30 mM stock solution of Gd or Mn complex.
For mice liver imaging, a series of baseline images (3D T1 weighted fast low angle shot magnetic resonance imaging (FLASH)) were first acquired (repetition time/echo time=15/2 ms; flip angle, 30°; field of view, 48×30 mm^2; matrix size, […]; slice thickness, 0.25 mm; acquisition time, 3 minutes 20 seconds), then a bolus of Gd or Mn complex was administered i.v. and imaging performed for a period of 45 min p.i. with the repetition acquisition of 3D T1 weighted FLASH sequences. Following the imaging session, animals were sacrificed (75 min p.i.) and liver tissue was subjected to histopathologic analysis.
For liver imaging analysis, a region of interest (ROI) was manually traced encompassing the liver parenchyma while avoiding major blood vessels. A second ROI was placed on the dorsal muscle visible in the same image slice to quantify the signal intensity in the muscle for comparison. Seven ROIs were placed in the field of view without any tissue (air) to measure the variation in background signal. More than 20 axial slices per mouse across the entire liver were analyzed in this fashion. […] Contrast to noise ratio (CNR) was calculated by measuring the difference in signal intensity (SI) between liver and muscle and normalizing to the standard deviation of the signal in the air, eq 21. ΔCNR was calculated by subtracting CNR measured prior to probe injection (CNRPre) from CNR measured after injection (CNRPost), eq 22. […]

Series [5] is described as follows: Biodistribution of manganese in healthy mice 60 minutes post-injection. The class given is in vivo, mouse. Conditions: 0.1 mmol/kg i.v. From the text: (§2) To meet these requirements, the probes Mn-12, Mn-13 and Mn-14 were designed based on the stable Mn-1,4-DO2A chelate. […] This combination of stability, turn-on relaxivity, and low uptake in healthy liver indicate that Mn-12 is quite promising as a novel probe for liver fibrogenesis detection.

Series [6] is described as follows: H2^17O transverse relaxivity vs temperature (inner-sphere water number q). The class given is physicochemical. Conditions: temperature dependence of H2^17O transverse relaxivity.
Description: FIG. 24. […] The peak relaxivity is indicative of the number of inner-sphere water molecules (q).
as §2

Series [7] can be described thus: Reaction rates with butyraldehyde measured by HPLC-ICP-MS (Method B). The class given is physicochemical. Conditions: Method b: butyraldehyde 100 μM, probe 25 μM, pH 7.40. Here is the method: Method B: Reaction Rates of Compounds with Butyraldehyde Measured by HPLC-ICP-MS
The reactions were conducted in pH 7.40 phosphate-buffered with butyraldehyde concentration of 100 μM and hydrazine probes at 25 μM. Concentrations of unreacted starting material and condensation products were determined at 10 min time intervals over 2 hours based on their relative integrations. The values were fit to a standard first order rate constant linear equation and the rate constant was extracted from the slope.
Reaction with Butyraldehyde Monitored by HPLC-ICP-MS
Reactions were conducted in pH 7.4 phosphate-buffered saline with butyraldehyde concentration of 100 μM and hydrazine probes at 25 μM. Concentrations of unreacted starting material and condensation products were determined based on their relative integrations at 12 min time intervals over 2 hours.

Series [8] can be described thus: Transmetalation experiment with Zn^2+ monitored by relaxivity. The class given is physicochemical. Conditions: 1 mM complex, 25 mM Zn^2+, 50 mM pH 6.0 MES buffer, 37° C., 1.4 T.
Series [9] addresses bovine serum albumin (BSA) (Bos taurus, UniProt P02769). The experiment in a line: Relaxivity measurements with BSA. Type of series: binding. Conditions: 1.4 T, 37° C., BSA 10 mg/mL. Here is the method:
as §1

Series [10] concerns the target T1, BSA-ALD (oxidized bovine serum albumin containing allysine aldehyde groups) (Bos taurus, UniProt P02769).
T1 construct: made in house; host or cells: no expression host: BSA oxidised chemically with sodium ascorbate, ferric chloride and H2O2, then desalted on PD-10
The experiment in a line: Relaxivity measurements with BSA-Ald. The class given is binding. Here is the method:
Preparation of Allysine Containing Bovine Serum Albumin, BSA-ALD:
To a solution of bovine serum albumin (BSA) (100 mg) dissolved in phosphate buffered saline (4 mL, pH 7.4, 0.25 mM), sodium ascorbate (20 mg), ferric chloride (120 μL, 10 mM) and 20 μL H2O2 (30% w) were added. The reaction was stirred at 37° C. for 24 hours, and sodium ascorbate (20 mg) was added repeatedly every 8 hours. After the reaction, protein was purified using PD-10 Sephadex G25 desalting columns (GE Healthcare), eluted with PBS. Protein concentration was assessed using the ‘BCA Protein Assay Kit’ (Thermo Scientific). Protein carbonyl concentration was determined by ‘Protein Carbonyl Content Assay Kit’ (Sigmal-Aldrich).
Alternatively, preparation of BSA^Ald and binding of Gd^3+ probe to protein was carried out according to modified procedures. To a solution of bovine serum albumin (BSA) (100 mg) dissolved in phosphate buffered saline (4 mL, pH 7.4, 0.25 mM) was added sodium ascorbate (20 mg), ferric chloride (120 μL, 10 mM) and 20 μL H2O2 (30% w). The reaction was stirred at 37° C. for 24 h, and sodium ascorbate (20 mg) was added repeatedly every 8 h. After 24 h, the protein was purified using PD-10 Sephadex G25 desalting columns (GE Healthcare), eluted with PBS. Protein concentration was assessed using the ‘Micro BCA Protein Assay Kit’ (Thermo Scientific, 23235). Protein carbonyl concentration was determined by ‘Protein Carbonyl Content Assay Kit’ (Sigma-Aldrich, MAK094-1KT). […] The protein solutions were kept at a concentration of 20 mg/mL for further use.
as §1

T1 sequence (P02769 25-607): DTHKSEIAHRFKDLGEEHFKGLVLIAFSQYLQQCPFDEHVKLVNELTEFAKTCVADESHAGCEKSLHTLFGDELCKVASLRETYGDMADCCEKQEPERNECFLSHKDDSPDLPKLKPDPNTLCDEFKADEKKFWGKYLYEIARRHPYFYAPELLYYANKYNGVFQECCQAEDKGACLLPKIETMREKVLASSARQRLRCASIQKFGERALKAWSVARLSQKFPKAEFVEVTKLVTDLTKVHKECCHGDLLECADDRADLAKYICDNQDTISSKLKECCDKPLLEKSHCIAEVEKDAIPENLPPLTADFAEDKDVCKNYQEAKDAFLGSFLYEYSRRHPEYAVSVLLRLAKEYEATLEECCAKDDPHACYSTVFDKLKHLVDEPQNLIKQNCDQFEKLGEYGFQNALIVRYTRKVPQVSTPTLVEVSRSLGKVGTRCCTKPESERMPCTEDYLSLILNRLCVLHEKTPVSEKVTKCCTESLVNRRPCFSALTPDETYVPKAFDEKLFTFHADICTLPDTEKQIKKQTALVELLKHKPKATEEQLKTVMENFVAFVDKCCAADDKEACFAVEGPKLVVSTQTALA
Sequence of bovine serum albumin (BSA) (P02769 25-607): as above

Regarding `NOCC(=O)NCCN(CCNC(=O)CCC1C(=O)[O][Gd]23[O]C(=O)CN4CCN(CCN1CCN(CC4)CC(=O)[O]2)CC(=O)[O]3)CCNC(=O)CON` (centres unmarked) [Compound 19], in series [1], the “Gd:Eu ratio, Left lung” value worked out at 1.4 ± 0.1 and the “Gd:Eu ratio, Right lung” value was 1.3 ± 0.2. In [2], the “k (second order rate constant)” value is 0.55 M⁻¹ s⁻¹.
Turning to `NN1CCN(C(=O)CCCN2CCN(CCCC(=O)N3CCN(N)CC3)CCN(CC(=O)[O-])CCN(CC(=O)[O-])CC2)CC1.[Mn+2]` [Mn-12], the “r1, PBS” value in series [3] is 1.6 mM⁻¹ s⁻¹. In addition, the “liver enhancement” value in [4] (45 min p.i.) is reported as “strong signal enhancement”. In [4] (45 min post injection, 100 μmol/kg i.v., group mean), the “ΔCNR (liver to muscle)” value came to 1.5 ± 0.8. The “Mn liver levels in healthy mice” value in [5] is recorded as “little accumulation in the healthy liver; also recorded: baseline Mn levels in liver”. The “inner-sphere number of water molecule (q)” value in series [6] worked out at 0.44. Further, the “k (second order rate constant)” value in series [7] worked out at 4.5 M⁻¹ s⁻¹. The “kinetic inertness to Mn^2+ release” value in series [8] is given as “more inert to Mn^2+ release than Mn-1,4-DO2A; also recorded: increased kinetic stability of Mn-12 compared to unmodified Mn-1,4-DO2A”. In addition, the “r1, +BSA” value in [9] was determined as 2.2 mM⁻¹ s⁻¹. Also, the “turn-on in relaxivity upon binding to allysine (BSA-Ald bound vs unbound)” value in series [10] was 4 fold and ~5 fold. The “r1, +BSA-Ald” value in series [10] (1.4 T, 37° C., BSA-Ald 10 mg/mL) was found to be 4.5 mM⁻¹ s⁻¹. In [10] (1.4 T, 37° C., protein-bound species after NaBH3CN and ultrafiltration), the “r1, Bound to BSA-Ald” value was 7.7 mM⁻¹ s⁻¹.
